Measured values from US20080045514A1 (Cytovia, Inc., priority 2006, published 2008).

Key:
Assay type in all cases: cell-based
[1] = test system: human breast cancer cell line T-47D; experiment: Caspase cascade activation (EC50), T-47D; conditions: Homo sapiens; T47D cells; caspase cascade activation; read-out: caspase potency (EC50) T47D
Method in brief: (§1)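 EC50 values derive from a sigmoidal fit of net fluorescence (3 h reading minus control T=0 background) relative to untreated control. The 3 h room-temperature read used 14 μM DEVD-R110 substrate with lysolecithin, DTT and pH 7.2 PIPES buffer at 485/530 nm. Beforehand, cells were treated 48 h at 37° C with 0.016-10 μM final compound.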

[2] = test system: human hepatocellular carcinoma cell line SNU398; experiment: Caspase cascade activation (EC50), SNU398; conditions: Homo sapiens, SNU-398; SNU398 cells; caspase cascade activation; read-out: caspase potency (EC50) SNU398
Method in brief: as §1

[3] = test system: human colon carcinoma cell line HCT116; experiment: Caspase cascade activation (EC50), HCT116; conditions: Homo sapiens, HCT-116; HCT116 cells; caspase cascade activation; read-out: caspase potency (EC50) HCT116
Method in brief: as §1

[4] = test system: human Burkitt's lymphoma cell line Namalwa; experiment: Caspase cascade activation (EC50), Namalwa; conditions: Homo sapiens, Burkitts lymphoma cell; Namalwa cells; caspase cascade activation; read-out: caspase potency (EC50) Namalwa
Method in brief: as §1

[5] = test system: human breast cancer cell line T-47D; experiment: Inhibition of cell proliferation (GI50), T47D; conditions: Homo sapiens; T47D cells, 48 h, CellTiter-Glo
Method: (§2) Human breast cancer cell lines T-47D, human hepatocellular carcinoma cell line SNU398, human colon carcinoma cell line HCT116, human lung cancer cell line H1299, human leukemia cell line K562, human lymphoma cell line Raji, human B cell lymphoblastoid cell line Ramos, and human Burkitt's lymphoma cell line Namalwa were grown and harvested as in Example 100. An aliquot of […] of cells (4.4×10^4 cells/mL) was added to a well of a 96-well microtiter plate containing 5 μL of a 10% DMSO in RPMI-1640 media solution containing 10 nM to 100 μM of 3-(2-chlorophenyl)-6-(3,4-methylenedioxyphenyl)-7H-[1,2,4]triazolo[3,4-b][1,3,4]thiadiazine (1 nM to 10 μM final). An aliquot of 45 μL of cells was added to a well of a 96-well microtiter plate containing 5 μL of a 10% DMSO in RPMI-1640 media solution without compound as the control sample for maximal cell proliferation (LMax). The samples were mixed by agitation and then incubated at 37° C. for 48 h in a 5% CO2-95% humidity incubator. After incubation, the samples were removed from the incubator and 25 μL of CellTiter-Glo™ reagent (Promega) was added. The samples were mixed by agitation and incubated at room temperature for 10-15 min. Plates were then read using a luminescent plate reader (Model SPECTRAfluor Plus, Tecan) to give Ltest values.
(§3) The samples were mixed by agitation and then incubated at 37° C. for 0.5 h in a 5% CO2-95% humidity incubator. After incubation, the samples were removed from the incubator and 25 μL of CellTiter-Glo™ reagent (Promega) was added. The samples were mixed by agitation and incubated at […] 10-15 min at room temperature in a 5% CO2-95% humidity incubator. Fluorescence was read as above, (LStart) defining luminescence for initial cell number used as baseline in GI50 determinations.
(§4) Calculation: GI50 (dose for 50% inhibition of cell proliferation) is the concentration where [(Ltest−LStart)/(LMax−LStart)]=0.5.

[6] = test system: human hepatocellular carcinoma cell line SNU398; experiment: Inhibition of cell proliferation (GI50), SNU398; conditions: Homo sapiens; SNU 398 cells, 48 h, CellTiter-Glo
Method: as §2, §3, §4

[7] = test system: human colon carcinoma cell line HCT116; experiment: Inhibition of cell proliferation (GI50), HCT116; conditions: Homo sapiens; HCT 116 cells, 48 h, CellTiter-Glo
Method in brief: (§5)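 Seed 4.4×10^4 cells/mL onto compound dilutions (final 1 nM to 10 μM). Incubate 48 h, 37 °C, 5% CO2. Add CellTiter-Glo, read luminescence. Compute GI50 from test signal normalised between 0.5 h starting signal and untreated control.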

[8] = test system: human Burkitt's lymphoma cell line Namalwa; experiment: Inhibition of cell proliferation (GI50), Namalwa; conditions: Homo sapiens, Burkitts lymphoma cell; Namalwa cells, 48 h, CellTiter-Glo
Method in brief: as §5

Structure (SMILES)	EC50 [1]	EC50 [2]	EC50 [3]	EC50 [4]	GI50 [5]	GI50 [6]	GI50 [7]	GI50 [8]
COc1cc(-c2nnc3n2N=C(c2ccc(N)cc2)CS3)cc(OC)c1OC [Example 66, 6-(4-Aminophenyl)-3-(3,4,5-trimethoxyphenyl)-7H-[1,2,4]triazolo[3,4-b][1,3,4]thiadiazine]	72 nM	21 nM	29 nM	16 nM	47 nM	24 nM	127 nM	43 nM
COc1ccccc1-c1nnc2n1N=C(c1ccc3c(c1)OCCO3)CS2 [Example 43, 6-(2,3-Dihydrobenzo[b][1,4]dioxin-6-yl)-3-(2-methoxyphenyl)-7H-[1,2,4]triazolo[3,4-b][1,3,4]thiadiazine]	35 nM	17 nM	25 nM	15 nM	34 nM	13 nM	40 nM	64 nM
Cc1ccc(C2=Nn3c(nnc3-c3ccccc3F)SC2)cc1 [Example 68, 3-(2-Fluorophenyl)-6-(4-methylphenyl)-7H-[1,2,4]triazolo[3,4-b][1,3,4]thiadiazine]	5260 nM	636 nM	1260 nM	481 nM	2760 nM	144 nM	947 nM	269 nM
COc1ccccc1-c1nnc2n1N=C(c1ccc3[nH]c(=O)oc3c1)CS2 [Example 47, 6-(2,3-Dihydro-2-oxobenzo[d]oxazol-6-yl)-3-(2-methoxyphenyl)-7H-[1,2,4]triazolo[3,4-b][1,3,4]thiadiazine]	2330 nM	2740 nM	5540 nM	4790 nM	3020 nM	1220 nM	3000 nM	1480 nM
COc1cccc(C2=Nn3c(nnc3-c3ccccc3OC)SC2)c1 [Example 63, 3-(2-Methoxyphenyl)-6-(3-methoxylphenyl)-7H-[1,2,4]triazolo[3,4-b][1,3,4]thiadiazine]	261 nM	146 nM	277 nM	128 nM	371 nM	119 nM	300 nM	232 nM
COc1ccc(OC)c(-c2nnc3n2N=C(c2ccc(C)cc2)CS3)c1 [Example 69, 3-(2,5-Dimethoxyphenyl)-6-(4-methylphenyl)-7H-[1,2,4]triazolo[3,4-b][1,3,4]thiadiazine]	42 nM	15 nM	17 nM	11 nM	50 nM	4 nM	41 nM	10 nM
Cc1ccc(C2=Nn3c(nnc3-c3ccccc3C)SC2)cc1 [Example 70, 3-(2-Methylphenyl)-6-(4-methylphenyl)-7H-[1,2,4]triazolo[3,4-b][1,3,4]thiadiazine]	546 nM	165 nM	205 nM	157 nM	500 nM	144 nM	1010 nM	158 nM
COc1ccccc1-c1nnc2n1N=C(c1ccc(OC)c(OC)c1OC)CS2 [Example 42, 6-(2,3,4-Trimethoxyphenyl)-3-(2-methoxyphenyl)-7H-[1,2,4]triazolo[3,4-b][1,3,4]thiadiazine]	335 nM	488 nM	753 nM	316 nM	288 nM	121 nM	482 nM	433 nM
COc1ccc(C2=Nn3c(nnc3-c3ccc(Cl)cc3Cl)SC2)cc1 [Example N3]	284 nM	52 nM	55 nM	32 nM	34 nM	13 nM	40 nM	64 nM
COc1ccc(Cl)cc1-c1nnc2n1N=C(c1ccc(C)cc1)CS2 [Example 62, 3-(5-Chloro-2-methoxyphenyl)-6-(4-methylphenyl)-7H-[1,2,4]triazolo[3,4-b][1,3,4]thiadiazine]	101 nM	24 nM	31 nM	18 nM	33 nM	10 nM	50 nM	15 nM
COc1ccc(C2=Nn3c(nnc3-c3ccccc3OC)SC2)cc1 [Example 46, 3-(2-Methoxyphenyl)-6-(4-methoxyphenyl)-7H-[1,2,4]triazolo[3,4-b][1,3,4]thiadiazine]	43 nM	17 nM	19 nM	11 nM	12 nM	10 nM	8 nM	13 nM
CNc1ccccc1-c1nnc2n1N=C(c1ccc(C)cc1)CS2 [Example 84, 3-(2-Methylaminophenyl)-6-(4-methylphenyl)-7H-[1,2,4]triazolo[3,4-b][1,3,4]thiadiazine]	528 nM	148 nM	130 nM	125 nM	498 nM	154 nM	911 nM	150 nM
CSc1ccccc1-c1nnc2n1N=C(c1ccc(C)cc1)CS2 [Example 71, 3-(2-Methylthiophenyl)-6-(4-methylphenyl)-7H-[1,2,4]triazolo[3,4-b][1,3,4]thiadiazine]	453 nM	70 nM	76 nM	65 nM	276 nM	91 nM	169 nM	77 nM
COc1cc(C)ccc1C1=Nn2c(nnc2-c2ccccc2OC)SC1 [Example 41, 6-(2-Methoxy-4-methylphenyl)-3-(2-methoxyphenyl)-7H-[1,2,4]triazolo[3,4-b][1,3,4]thiadiazine]	422 nM	180 nM	289 nM	182 nM	261 nM	117 nM	1270 nM	208 nM
COc1ccccc1-c1nnc2n1N=C(c1ccc(Cl)c(N)c1)CS2 [Example 59, 6-(3-Amino-4-chlorophenyl)-3-(2-methoxyphenyl)-7H-[1,2,4]triazolo[3,4-b][1,3,4]thiadiazine]	102 nM	43 nM	59 nM	34 nM	103 nM	98 nM	149 nM	84 nM
COc1ccccc1-c1nnc2n1N=C(c1ccc(NC(C)C)cc1)CS2 [Example 80, 6-(4-Isopropylaminophenyl)-3-(2-methoxyphenyl)-7H-[1,2,4]triazolo[3,4-b][1,3,4]thiadiazine]	188 nM	117 nM	204 nM	115 nM	297 nM	115 nM	300 nM	170 nM
Cc1ccc(C2=Nn3c(nnc3-c3ccccc3C)SC2)cc1N [Example 61, 6-(3-Amino-4-methylphenyl)-3-(2-methylphenyl)-7H-[1,2,4]triazolo[3,4-b][1,3,4]thiadiazine]	330 nM	109 nM	137 nM	71 nM	269 nM	228 nM	400 nM	150 nM
COc1ccccc1-c1nnc2n1N=C(c1ccc(C(F)(F)F)cc1)CS2 [Example 48, 6-(4-(Trifluoromethyl)phenyl)-3-(2-methoxyphenyl)-7H-[1,2,4]triazolo[3,4-b][1,3,4]thiadiazine]	545 nM	511 nM	569 nM	480 nM	690 nM	120 nM	324 nM	452 nM
